In patent US11000033B2, “Ketone or oxime compound, and herbicide” (NISSAN CHEMICAL CORPORATION, priority 2014, dated 2021):

Legend:
Assay type in all cases: in vivo
[1] = tested on: Echinochloa oryzacola Vasing.; test: Test Example 2: herbicidal activity, application during weed generation in submerged conditions (symbol A); settings: Table 23; application herbicide amount 320 g/ha; grade 0-5 by criteria of Test Example 1
Method in brief: (§1)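 Compound was applied as a water-diluted emulsion into the standing water of flooded pots (4 cm) once co-sown weeds reached one to two leaves. Greenhouse temperature was 25° C. to 30° C., soil was alluvial, and each species was rated visually after 3 weeks.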

Avena fatua = test: Test Example 4: herbicidal effect by soil treatment (symbol I)
Method in brief: (§2)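 Seeds were sown in sterilized diluvial soil, covered with about 1.5 cm of soil, and the soil surface was sprayed with a water-diluted emulsion of the compound at a predetermined rate. Plants grew in a greenhouse at 25° C. to 30° C.; effects were scored visually 3 weeks after application.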

rice plant = test: Test Example 5: effect on crop by foliage application, plastic box (symbol b); settings: 320 g/ha, 3 weeks after application
Method in brief: (§3)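 Foliage-application test plants come from spot sowing in sterilized diluvial soil under a soil layer of about 1.5 cm, grown at 25° C. to 30° C. in a greenhouse.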

soybean = test: Test Example 5: effect on crop by foliage application, plastic box (symbol d); settings: 320 g/ha, 3 weeks after application
Method in brief: as §3

Lolium multiflorum Lam. = test: Test Example 5: herbicidal effect by foliage application, plastic box (symbol K); settings: 320 g/ha, 3 weeks after application
Method in brief: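 After sowing into sterilized diluvial soil and growing two weeks under glass at 25° C. to 30° C., seedlings receive a uniform foliar spray of diluted emulsion. Damage is judged visually three weeks on.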

Monochoria vaginalis [2] = test: Test Example 1: herbicidal activity, application before weed generation in submerged conditions (symbol C); settings: application herbicide amount 320 g/ha
Method in brief: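 Scores run 0 to 5 by herbicidal ratio, with 5 meaning 90% or more and 0 meaning 5% or lower, read 3 weeks after treatment. Compound was applied as a diluted emulsion to the water surface of submerged alluvial-soil pots on the day weed seeds were sown.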

Monochoria vaginalis [3] = test: Test Example 2: herbicidal activity, application during weed generation in submerged conditions (symbol C); settings: Table 23; application herbicide amount 320 g/ha; grade 0-5 by criteria of Test Example 1
Method in brief: as §1

[4] = tested on: Echinochloa crus-galli var. crus-galli; test: Test Example 4: herbicidal effect by soil treatment (symbol H)
Method in brief: as §2

Digitaria ciliaris = test: Test Example 4: herbicidal effect by soil treatment (symbol F)
Method in brief: as §2

Scirpus juncoides = test: Test Example 2: herbicidal activity, application during weed generation in submerged conditions (symbol B); settings: Table 23; application herbicide amount 320 g/ha; grade 0-5 by criteria of Test Example 1
Method in brief: as §1

Chenopodium album = test: Test Example 4: herbicidal effect by soil treatment (symbol O)
Method in brief: as §2

rapeseed = test: Test Example 4: effect on crop by soil treatment (symbol g); settings: for g: rapeseed, effect on crop grade: application herbicide amount 320 g/ha
Method in brief: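 Seeds were sown in spots on sterilized diluvial soil in a plastic box and covered with about 1.5 cm of soil. Plants were then grown in a greenhouse at 25° C. to 30° C.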

Abutilon theophrasti = test: Test Example 4: herbicidal effect by soil treatment (symbol M)
Method in brief: as §2

corn [5] = test: Test Example 5: effect on crop by foliage application, plastic box (symbol c); settings: 320 g/ha, 3 weeks after application
Method in brief: as §3

Apera spica-venti = test: Test Example 4: herbicidal effect by soil treatment (symbol L)
Method in brief: as §2

corn [6] = test: Test Example 4: effect on crop by soil treatment (symbol c); settings: for c: corn, effect on crop grade: application herbicide amount 320 g/ha
Method in brief: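 Steps: fill box with sterilized diluvial soil; sow seed spot-like; cover with ~1.5 cm soil; grow in greenhouse (25° C. to 30° C.).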

[7] = application herbicide amount 320 g/ha

Structure (SMILES)	Herbicidal effect grade, A: Echinochloa oryzacola Vasing. [1]	I: Avena fatua, herbicidal effect grade (Avena fatua; [7])	b: directly sowed rice plant, effect on crop grade (rice plant)	d: soybean, effect on crop grade (soybean)	K: Lolium multiflorum Lam., herbicidal effect grade (Lolium multiflorum Lam.)	Herbicidal effect grade, C: Monochoria vaginalis (Monochoria vaginalis [2])	Herbicidal effect grade, C: Monochoria vaginalis (Monochoria vaginalis [3])	H: Echinochloa crus-galli var. crus-galli, herbicidal effect grade [4, 7]	F: Digitaria ciliaris, herbicidal effect grade (Digitaria ciliaris; [7])	Herbicidal effect grade, B: Scirpus juncoides (Scirpus juncoides)	O: Chenopodium album, herbicidal effect grade (Chenopodium album; [7])	g: rapeseed, effect on crop grade (rapeseed)	M: Abutilon theophrasti, herbicidal effect grade (Abutilon theophrasti; [7])	c: corn, effect on crop grade (corn [5])	L: Apera spica-venti, herbicidal effect grade (Apera spica-venti; [7])	c: corn, effect on crop grade (corn [6])	other results
COC(=O)C(C(=O)C1CC1)C1CC(O)=C(c2c(C)cc(C)cc2C)C1=O (stereo not shown) [2-014]	4 (Herbicidal ratio of 70% or higher and lower than 90%)	0 (Herbicidal ratio of 5% or lower (almost no effect))	5 (Herbicidal ratio of 90% or more (almost completely withered))	0 (Herbicidal ratio of 5% or lower (almost no effect))	5 (Herbicidal ratio of 90% or more (almost completely withered))	1 (Herbicidal ratio of 5% or higher and lower than 20%)	0 (Herbicidal ratio of 5% or lower (almost no effect))	5 (Herbicidal ratio of 90% or more (almost completely withered))	5 (Herbicidal ratio of 90% or more (almost completely withered))	3 (Herbicidal ratio of 40% or higher and lower than 70%)	0 (Herbicidal ratio of 5% or lower (almost no effect))	0 (Herbicidal ratio of 5% or lower (almost no effect))	0 (Herbicidal ratio of 5% or lower (almost no effect))	3 (Herbicidal ratio of 40% or higher and lower than 70%)	2 (Herbicidal ratio of 20% or higher and lower than 40%)	3 (Herbicidal ratio of 40% or higher and lower than 70%)	–
C=CC(=O)CC1CC(O)=C(c2c(C)cc(C)cc2C)C1=O (stereo not shown) [2-031]	4 (Herbicidal ratio of 70% or higher and lower than 90%)	0 (Herbicidal ratio of 5% or lower (almost no effect))	5 (Herbicidal ratio of 90% or more (almost completely withered))	0 (Herbicidal ratio of 5% or lower (almost no effect))	5 (Herbicidal ratio of 90% or more (almost completely withered))	2 (Herbicidal ratio of 20% or higher and lower than 40%)	0 (Herbicidal ratio of 5% or lower (almost no effect))	5 (Herbicidal ratio of 90% or more (almost completely withered))	5 (Herbicidal ratio of 90% or more (almost completely withered))	0 (Herbicidal ratio of 5% or lower (almost no effect))	0 (Herbicidal ratio of 5% or lower (almost no effect))	3 (Herbicidal ratio of 40% or higher and lower than 70%)	1 (Herbicidal ratio of 5% or higher and lower than 20%)	5 (Herbicidal ratio of 90% or more (almost completely withered))	2 (Herbicidal ratio of 20% or higher and lower than 40%)	5 (Herbicidal ratio of 90% or more (almost completely withered))	–
CON=C(C)CC1CC(O)=C(c2c(C)cc(Br)cc2C)C1=O (stereo not shown) [6-003]	4 (Herbicidal ratio of 70% or higher and lower than 90%)	3 (Herbicidal ratio of 40% or higher and lower than 70%)	5 (Herbicidal ratio of 90% or more (almost completely withered))	3 (Herbicidal ratio of 40% or higher and lower than 70%)	5 (Herbicidal ratio of 90% or more (almost completely withered))	1 (Herbicidal ratio of 5% or higher and lower than 20%)	3 (Herbicidal ratio of 40% or higher and lower than 70%)	5 (Herbicidal ratio of 90% or more (almost completely withered))	5 (Herbicidal ratio of 90% or more (almost completely withered))	1 (Herbicidal ratio of 5% or higher and lower than 20%)	0 (Herbicidal ratio of 5% or lower (almost no effect))	4 (Herbicidal ratio of 70% or higher and lower than 90%)	5 (Herbicidal ratio of 90% or more (almost completely withered))	5 (Herbicidal ratio of 90% or more (almost completely withered))	5 (Herbicidal ratio of 90% or more (almost completely withered))	4 (Herbicidal ratio of 70% or higher and lower than 90%)	–
CON=C(C)CC1CC(OC(=O)c2ccc(C(F)(F)F)cc2)=C(c2c(C)cc(C)cc2C)C1=O (stereo not shown) [1-149]	5 (Herbicidal ratio of 90% or more (almost completely withered))	–	–	–	–	1 (Herbicidal ratio of 5% or higher and lower than 20%)	3 (Herbicidal ratio of 40% or higher and lower than 70%)	–	–	4 (Herbicidal ratio of 70% or higher and lower than 90%)	–	–	–	–	–	–	I: Avena fatua, herbicidal effect grade (Avena fatua; 320 g/ha): 0 (Herbicidal ratio of 5% or lower (almost no effect)); b: directly sowed rice plant, effect on crop (criteria 0-5) (rice plant): 5 (Herbicidal ratio of 90% or more (almost completely withered)); d: soybean, effect on crop (criteria 0-5) (soybean): 2 (Herbicidal ratio of 20% or higher and lower than 40%); K: Lolium multiflorum Lam., herbicidal effect (criteria 0-5) (Lolium multiflorum Lam.): 5 (Herbicidal ratio of 90% or more (almost completely withered)); H: Echinochloa crus-galli var. crus-galli, herbicidal effect grade ([4]; 320 g/ha): 5 (Herbicidal ratio of 90% or more (almost completely withered)); F: Digitaria ciliaris, herbicidal effect grade (Digitaria ciliaris; 320 g/ha): 5 (Herbicidal ratio of 90% or more (almost completely withered)); O: Chenopodium album, herbicidal effect grade (Chenopodium album; 320 g/ha): 0 (Herbicidal ratio of 5% or lower (almost no effect)); g: rapeseed, effect grade on crop (rapeseed; 320 g/ha): 4 (Herbicidal ratio of 70% or higher and lower than 90%); M: Abutilon theophrasti, herbicidal effect grade (Abutilon theophrasti; 320 g/ha): 5 (Herbicidal ratio of 90% or more (almost completely withered)); c: corn, effect on crop (criteria 0-5) (corn [5]): 4 (Herbicidal ratio of 70% or higher and lower than 90%); L: Apera spica-venti, herbicidal effect grade (Apera spica-venti; 320 g/ha): 5 (Herbicidal ratio of 90% or more (almost completely withered)); c: corn, effect grade on crop (corn [6]; 320 g/ha): 2 (Herbicidal ratio of 20% or higher and lower than 40%)
